Experimental data as given in patent US20110105397A1, “METHOD FOR TREATING HEART FAILURE WITH STRESSCOPIN-LIKE PEPTIDES” (priority 2009, published 2011).

Tested on: dogs with advanced heart failure
Assay: Hemodynamic, angiographic, echocardiographic profile in anaesthetized dogs with advanced heart failure, IV infusion
Type: in vivo, dog
Description: The effects of h-SCP (SEQ ID NO:1) on cardiovascular function were also assessed in anaesthetized dogs with advanced, irreversible heart failure of ischemic etiology (Sabbah et al., 1991, Am. J. Physiol., vol. 260, pp. H1379-H1384; Sabbah et al., 1994, Circulation, vol. 98, pp. 2852-2859; Chandler et al., 2002, Circ. Res., vol. 91, pp. 278-280). Progressive, advanced heart failure was produced in mongrel dogs by multiple sequential intracoronary microembolization with polystyrene latex microspheres. Dose infusions of 2.2, 4.3, and 7.3 ng/kg/min were administered intravenously over 60 minutes just following or just prior to hemodynamic, angiographic, echocardiographic, and Doppler measurements using conventional hemodynamic, angiographic, echocardiographic, and radiographic methods. The h-SCP polypeptide (SEQ ID NO:1) produced dose- (infusion-) dependent increases in LVEF and SV and decreases in left ventricular end diastolic pressure (LVEDP), left ventricular pressure during isovolumic relaxation (LV-dP/dt), systemic vascular resistance (SVR), and left ventricular end-systolic volume (LVESV) that correlated with plasma concentration. No significant change in heart rate, peak systolic aortic blood pressure, LV+dP/dt, mean pulmonary artery pressure, mean pulmonary artery wedge pressure, right atrial pressure, or myocardial oxygen consumption were recorded following any of the 1 hour intravenous infusions (Table 18 and FIGS. 12 A & B). The improvement in LV systolic and diastolic function was not associated with the development of de novo ventricular arrhythmias.
In order to determine the threshold effective dose-infusion in dogs with advanced heart failure, a further study was performed at lower dose infusions. In addition, the opportunity was taken to explore whether the increase in LVEF produced by higher dose-infusions of 4.3 ng/kg/min would remain stable over a longer infusion period, i.e. 120 minutes.
In order to understand the potential cardiovascular effects of neutralizing antibody formation to h-SCP (SEQ ID NO:1), SV30 (SEQ ID No. 118), a competitive antagonist of CRHR2, was administered to dogs (N=4) with advanced heart failure. […] These experiments with SV30 indicate that baseline cardiovascular parameters in dogs with advanced heart failure were not dependent upon endogenous hormone stimulation of CRHR2. Similar findings have been reported in healthy conscious and anaesthetized rats (Gardiner et al., J. Pharmacol. Exp. Ther., 2007, vol 321, pp. 221-226).

[1] = Table 18, IV infusion 2.2 ng/kg/min, 60 min
[2] = Table 18, IV infusion 4.3 ng/kg/min, 60 min
[3] = Table 18, IV infusion 7.3 ng/kg/min, 60 min
[4] = Table 19, IV infusion 0.22 ng/kg/min, 60 min
[5] = Table 19, IV infusion 0.43 ng/kg/min, 60 min
[6] = Table 19, IV infusion 4.3 ng/kg/min, 60 min
[7] = Table 19, IV infusion 4.3 ng/kg/min, 120 min
[8] = Table 20, SEQ ID NO: 1 4.3 ng/kg/min + AS-30

“H-TKFTLSLDVPTNIMNLLFNIAKAKNLRAQAAANAHLMAQI-NH2 [SEQ ID NO: 1, TKFTLSLDVPTNIMNLLFNIAKAKNLRAQAAANAHLMAQI-NH2]” was tested, and the “-ESV” value [1] was 46 ± 1.7 mL, the CO [1] was 1.56 ± 0.11 L/min and the EDV [1] was 66 ± 2.5 mL. For the same substance, the EF [1] was 31 ± 0.5^+++,a,b %, the HR [1] was 76 ± 2 beats/min and the “LV Efficiency” value [1] was 23.0 ± 3.1%. For the same substance, the “LV+dP/dt (isovolumic contraction)” value [1] was 1477 ± 104 mmHg/sec, the “LVCBF (total left ventricular coronary blood flow)” value (from here on “LVCBF”) [1] was 52 ± 5 mL/min and the “LVEDP (left ventricular end diastolic pressure)” value [1] was 13 ± 0.9^+ mmHg. For the same substance, the “LV−dP/dt (isovolumic relaxation)” value [1] was 1216 ± 44 mmHg/sec, the “MPAP (mean pulmonary artery pressure)” value [1] was 15 ± 0.5 mmHg and the “MVO2 (myocardial oxygen consumption)” value [1] was 191 ± 14 μmols/min. For the same substance, the “PAWP (mean pulmonary artery wedge pressure)” value [1] was 9.0 ± 0.6 mmHg, the PSAP [1] was 90 ± 3 mmHg and the “RAP (mean right atrial pressure)” value [1] was 5.7 ± 0.5 mmHg. The SV [1] was 20 ± 0.9^+ mL, the “SVR (systemic vascular resistance)” value [1] was 4414 ± 193 dynes-sec-cm^−5 and the “-ESV” value [2] was 43 ± 1.7 mL. The CO [2] was 1.61 ± 0.13 L/min, the EDV [2] was 65 ± 2.5 mL and the EF [2] was 33 ± 0.5^+++,c %. The HR [2] was 73 ± 3 beats/min, the “LV Efficiency” value [2] was 26.0 ± 4.4% and the “LV+dP/dt (isovolumic contraction)” value [2] was 1400 ± 71 mmHg/sec. For the same substance, the “LVCBF” value [2] was 57 ± 6 mL/min, the “LVEDP (left ventricular end diastolic pressure)” value [2] was 13 ± 0.4^+ mmHg and the “LV−dP/dt (isovolumic relaxation)” value [2] was 1094 ± 42^+ mmHg/sec. For the same substance, the “MPAP (mean pulmonary artery pressure)” value [2] was 15 ± 0.5 mmHg, the “MVO2 (myocardial oxygen consumption)” value [2] was 177 ± 19 μmols/min and the “PAWP (mean pulmonary artery wedge pressure)” value [2] was 10 ± 0.6 mmHg. For the same substance, the PSAP [2] was 87 ± 2 mmHg, the “RAP (mean right atrial pressure)” value [2] was 5.4 ± 0.4 mmHg and the SV [2] was 22 ± 0.9^++ mL. The “SVR (systemic vascular resistance)” value [2] was 4144 ± 243^+ dynes-sec-cm^−5, the “-ESV” value [3] was 41 ± 1.8^+ mL and the CO [3] was 1.67 ± 0.09 L/min. The EDV [3] was 64 ± 2.4 mL, the EF [3] was 35 ± 0.9^+++ % and the HR [3] was 74 ± 2 beats/min. The “LV Efficiency” value [3] was 23.3 ± 3.2%, the “LV+dP/dt (isovolumic contraction)” value [3] was 1398 ± 74 mmHg/sec and the “LVCBF” value [3] was 59 ± 6 mL/min. For the same substance, the “LVEDP (left ventricular end diastolic pressure)” value [3] was 12 ± 0.6^++ mmHg, the “LV−dP/dt (isovolumic relaxation)” value [3] was 1112 ± 82^+ mmHg/sec and the “MPAP (mean pulmonary artery pressure)” value [3] was 14 ± 0.4 mmHg. For the same substance, the “MVO2 (myocardial oxygen consumption)” value [3] was 196 ± 18 μmols/min, the “PAWP (mean pulmonary artery wedge pressure)” value [3] was 9.0 ± 0.3 mmHg and the PSAP [3] was 87 ± 2 mmHg. For the same substance, the “RAP (mean right atrial pressure)” value [3] was 5.0 ± 0.4 mmHg, the SV [3] was 22 ± 0.9^++ mL and the “SVR (systemic vascular resistance)” value [3] was 3958 ± 182^++ dynes-sec-cm^−5. The CO [4] was 1.37 ± 0.04 L/min, the HR [4] was 75 ± 1.1 beats/min and the “LV+dP/dt” value [4] was 1842 ± 127 mmHg/sec. It also gave an LVEDP [4] of 14 ± 1.1 mmHg, an LVEDV [4] of 66 ± 1.5 mL and an LVEF [4] of 28 ± 0.6%. For the same substance, the LVESV [4] was 48 ± 1.2 mL, the “LV−dP/dt” value [4] was 1448 ± 155 mmHg/sec and the MPAP [4] was 15 ± 0.7 mmHg. For the same substance, the PAWP [4] was 10.1 ± 0.6 mmHg, the PSAP [4] was 97 ± 3.3 mmHg and the SV [4] was 18 ± 0.5 mL. For the same substance, the SVR [4] was 4757 ± 287 dynes-sec-cm^−5, the CO [5] was 1.50 ± 0.04 L/min and the HR [5] was 77 ± 1.0 beats/min. For the same substance, the “LV+dP/dt” value [5] was 1691 ± 96 mmHg/sec, the LVEDP [5] was 13 ± 1.4 mmHg and the LVEDV [5] was 65 ± 1.1 mL. The LVEF [5] was 30 ± 0.9%, the LVESV [5] was 45 ± 1.2 mL and the “LV−dP/dt” value [5] was 1249 ± 120 mmHg/sec. For the same substance, the MPAP [5] was 15 ± 0.8 mmHg, the PAWP [5] was 9.6 ± 0.7 mmHg and the PSAP [5] was 93 ± 3.6 mmHg. The SV [5] was 19 ± 0.5 mL, the SVR [5] was 4134 ± 195 dynes-sec-cm^−5 and the CO [6] was 1.68 ± 0.06^++,a,c L/min. The HR [6] was 79 ± 2.0 beats/min, the “LV+dP/dt” value [6] was 1667 ± 88 mmHg/sec and the LVEDP [6] was 12 + 1.4 mmHg. For the same substance, the LVEDV [6] was 63 ± 1.3 mL, the LVEF [6] was 34 ± 1.4^+++,b,e % and the LVESV [6] was 42 ± 1.4^++,a mL. The “LV−dP/dt” value [6] was 1166 ± 82 mmHg/sec, the MPAP [6] was 15 ± 0.8 mmHg and the PAWP [6] was 9.0 ± 0.6 mmHg. For the same substance, the PSAP [6] was 92 ± 4.1 mmHg, the SV [6] was 21 ± 0.8^+++,a,c mL and the SVR [6] was 3638 ± 191^+,d dynes-sec-cm^−5. The CO [7] was 1.83 ± 0.09^+++,b,e L/min, the HR [7] was 81 ± 3.6 beats/min and the “LV+dP/dt” value [7] was 1640 ± 88 mmHg/sec. The LVEDP [7] was 12 ± 1.2 mmHg, the LVEDV [7] was 62 ± 1.3 mL and the LVEF [7] was 37 ± 1.2^+++,b,e %. For the same substance, the LVESV [7] was 39 ± 1.4^+++,b,e mL, the “LV−dP/dt” value [7] was 1124 ± 92 mmHg/sec and the MPAP [7] was 15 ± 0.9 mmHg. The PAWP [7] was 9.4 ± 0.8 mmHg, the PSAP [7] was 92 ± 4.3 mmHg and the SV [7] was 23 ± 0.6^+++,a,e mL. For the same substance, the SVR [7] was 3372 ± 238^++,a,c dynes-sec-cm^−5, the CO [8] was 1.55 ± 0.08 L/min and the HR [8] was 82 ± 4 beats/min. For the same substance, the “LV+dP/dt” value [8] was 1618 ± 79 mmHg/sec, the LVEDP [8] was 15 ± 2 mmHg and the LVEDV [8] was 68 ± 2.1 mL. For the same substance, the LVEF [8] was 28 ± 0.5%, the LVESV [8] was 49 ± 1.8 mL and the MPAP [8] was 16 ± 0.8 mmHg. For the same substance, the PSAP [8] was 90 ± 4 mmHg, the SV [8] was 19 ± 0.4 mL and the “infusion dose with minimal effect on left ventricular systolic and diastolic function” value (dogs with advanced heart failure, 60 minutes) was 0.43 ng/kg/min.
